Results taken from patent US20220081446A1, “CRYSTAL FORM OF 1,2,3-TRIAZOLO[1,5-A]PYRAZINES DERIVATIVE AND PREPARATION METHOD FOR CRYSTAL FORM” (Jiangsu Hengrui Medicine Co., Ltd., priority 2019, published 2022).

Tests used:
[1] = test system: HBV DNA replication in HepG2.2.15 cells; assay: In vitro anti-HBV activity test (quantitative analysis of intracellular HBV DNA); format: cell-based; conditions: HBV DNA by quantitative PCR
Description: Test Example 1: In Vitro Anti-HBV Activity Test (Quantitative Analysis of Intracellular HBV DNA)
HepG2.2.15 cells were stable expression cell lines integrated with HBV genome, which can be secreted out of cells through replication, transcription, translation and packaging into virus particles with HBV DNA. In this study, the quantitative PCR method was used to quantitatively analyze the HBV DNA produced by the proliferation of HepG2.2.15 in vitro, thus determining the activity of the compounds in the present disclosure to inhibit HBV DNA replication through inhibiting the assembly of HBV capsid protein.
HepG2.2.15 cells were cultured in DMEM/high glucose medium (10% FBS, 400 μg/ml G418) and passaged every 3 days. On the day of experiment, fresh cell culture medium was used to prepare cell suspension, which was cultured with 40,000 cells/well in 96 well plate (Corning, #3599) under 5% carbon dioxide at 37° C. […] The extracted DNA was analyzed by HBV DNA quantitative PCR using Hepatitis B virus nucleic acid quantitative detection kit from Tepp biology, with the method specifically mentioned in the instructions of the kit. The quantitative standard curve was determined in parallel experiment using the own standard sample of the kit. Each sample was converted quantitatively based on the standard curve. […]

[2] = test system: HepG2 cells; conditions: read-out: CC50 (proliferation inhibition), 72 hours, CellTiter-Glo
Procedure: HepG2 cells taken in logarithmic growth stage were prepared into the cell suspension through digestion with trypsin, and then the suspension was cultured with 6,000 cells/well in 96-well plate (96-well White/Clear Flat Bottom plate) under 5% carbon dioxide at 37° C. for 16-20 hours. On the second day, the compound was dissolved in pure DMSO with the concentration of 20 mM, and then the gradient dilution of the compound was carried out by using Automatic pipetting workstation (Bravo) with the dilution times of 3, where there were 8 concentration points for each compound, and the control well was DMSO; next, the compound with each concentration treated by DMSO was diluted 200 times using EMEM (containing 10% FBS) medium. The cell culture plate inoculated on the first day was taken out, and then the medium in the well plate was sucked out by using the negative pressure suction device. Into each well, the prepared medium containing each concentration of compound was added respectively, which was cultured with 100 μl/well at 37° C. for 72 hours. On the fifth day, the 96-well cell plate was taken out, and the freshly prepared CellTiter Glo was added into each well with 100 μL/well, left to stand for 5-10 minutes, sealed for the bottom of the 96-well plate with a white back cover film (PerkinElmer), placed into the Microplate Reader, and measured for the Luminescence signal by the reader.

[3] = test system: HepG2 cells; conditions: from PCT/CN2018/097170; cited from earlier work
[4] = target: HBV capsid protein (Hepatitis B virus genotype D subtype ayw, UniProt P03146); conditions: from PCT/CN2018/097170; cited from earlier work
HBV capsid protein, sequence (P03146 whole entry): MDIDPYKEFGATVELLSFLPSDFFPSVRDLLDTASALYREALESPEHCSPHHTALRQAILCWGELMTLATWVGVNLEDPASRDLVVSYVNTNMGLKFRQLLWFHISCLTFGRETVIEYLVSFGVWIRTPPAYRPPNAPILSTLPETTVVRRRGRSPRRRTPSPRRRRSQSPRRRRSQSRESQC

[5] = from PCT/CN2018/097170; cited from earlier work
[6] = DVS (dynamic vapor sorption) hygroscopicity test; format: physicochemical
Procedure: According to the definition of hygroscopicity characteristics and hygroscopic weight gain in “9103 guiding principles for hygroscopicity of drugs” in the fourth volume of Chinese Pharmacopoeia (2015 Edition),
DVS indicates dynamic vapor sorption: the determination is carried out by SMS DVS Advantage at 25° C. with a humidity change of 50%-95%-0%-95%-50%, and the step of 10% (the last step is 5%) (The specific range of humidity is subject to the corresponding spectrum, and the methods listed here are those used in most cases), and the judgment standard is that dm/dt is not more than 0.02%.

[7] = Investigation of influencing factors (stability under heating, illumination, high humidity); format: physicochemical
Procedure: The sample of the crystal form A (Example 5) was spread out, and its stability was investigated under the conditions of heating (40° C., 60° C.), illumination (4500 Lux) and high humidity (RH 75%, RH 90%). The sampling was investigated over 30 days.

[8] = Long term/accelerated stability; format: physicochemical
Procedure: The crystal form A (Example 5) was placed at 25° C., 60% RH and 40° C., 75% RH to investigate its stability

C[C@H]1Cn2nnc(C(=O)N[C@H](C)C(F)(F)F)c2CN1C(=O)Nc1ccc(F)c(F)c1 [Compound B, (S)-N^5-(3,4-difluorophenyl)-6-methyl-N^3-((R)-1,1,1-trifluoropropan-2-yl)-6,7-dihydro-[1,2,3]triazolo[1,5-a]pyrazine-3,5(4H)-dicarbonamide]
Emax (maximum inhibitory effect on HBV DNA replication) [1]: 100%
EC50 ([1]; read-out: EC50 (inhibition of HBV DNA replication)): 19 nM
CC50 [2]: > 100000 nM
effect on the proliferation inhibition of HepG2 cells in vitro [3]: no or little effect
inhibitory effect on the normal assembly of HBV capsid protein [4]: obvious inhibitory effect
bioavailability [5]: high
pharmacokinetic absorption [5]: good

C[C@H]1Cn2nnc(C(=O)N[C@H](C)C(F)(F)F)c2CN1C(=O)Nc1ccc(F)c(F)c1 [Crystal form A, (S)-N^5-(3,4-difluorophenyl)-6-methyl-N^3-((R)-1,1,1-trifluoropropan-2-yl)-6,7-dihydro-[1,2,3]triazolo[1,5-a]pyrazine-3,5(4H)-dicarbonamide]
hygroscopicity class ([6]; 70% RH): no or little hygroscopicity
hygroscopicity class ([6]; 90% RH): slight hygroscopicity, or no/little hygroscopicity
crystal form after DVS detection (XRPD) ([6]; before vs after DVS): remained unchanged
desorption process ([6]; humidity change from 0% to 95% RH): consistent with the adsorption process
hygroscopic weight gain ([6]; normal storage condition, 25° C. and 60% RH): about 0.07%
Color and character ([7]; 4500 Lux, day 5): white solid
Purity % ([7]; 4500 Lux, day 5): 98.27%
Color and character ([7]; 4500 Lux, day 10): white solid
Purity % ([7]; 4500 Lux, day 10): 98.27%
Color and character ([7]; 4500 Lux, day 30): white solid
Crystal form ([7]; 4500 Lux, day 30): No changed
Purity % ([7]; 4500 Lux, day 30): 98.30%
Color and character ([7]; RH 75%, day 5): white solid
Purity % ([7]; RH 75%, day 5): 98.26%
Weight gain % ([7]; RH 75%, day 5): 2.28%
Color and character ([7]; RH 75%, day 10): white solid
Purity % ([7]; RH 75%, day 10): 98.29%
Weight gain % ([7]; RH 75%, day 10): 2.72%
Color and character ([7]; RH 75%, day 30): white solid
Crystal form ([7]; RH 75%, day 30): No changed
Purity % ([7]; RH 75%, day 30): 98.29%
Weight gain % ([7]; RH 75%, day 30): 6.68%
Color and character ([7]; RH 90%, day 5): white solid
Purity % ([7]; RH 90%, day 5): 98.26%
Weight gain % ([7]; RH 90%, day 5): 2.93%
Color and character ([7]; RH 90%, day 10): white solid
Purity % ([7]; RH 90%, day 10): 98.28%
Weight gain % ([7]; RH 90%, day 10): 3.19%
Color and character ([7]; RH 90%, day 30): white solid
Crystal form ([7]; RH 90%, day 30): No changed
Purity % ([7]; RH 90%, day 30): 98.30%
Weight gain % ([7]; RH 90%, day 30): 10.70%
Color and character ([7]; heating 40° C., day 5): white solid
Purity % ([7]; heating 40° C., day 5): 98.28%
Color and character ([7]; heating 40° C., day 10): white solid
Purity % ([7]; heating 40° C., day 10): 98.31%
Color and character ([7]; heating 40° C., day 30): white solid
Crystal form ([7]; heating 40° C., day 30): No changed
Purity % ([7]; heating 40° C., day 30): 98.32%
Color and character ([7]; heating 60° C., day 5): white solid
Purity % ([7]; heating 60° C., day 5): 98.26%
Color and character ([7]; heating 60° C., day 10): white solid
Purity % ([7]; heating 60° C., day 10): 98.27%
Color and character ([7]; heating 60° C., day 30): white solid
Crystal form ([7]; heating 60° C., day 30): No changed
Purity % ([7]; heating 60° C., day 30): 98.30%
physical and chemical stability ([7]; illumination, 40° C., 60° C., high humidity 75% and 90%, storing for 30 days): good physical and chemical stability
Color and character ([7]; start, day 0): white solid
Purity % ([7]; start, day 0): 98.30%
Purity % ([8]; 25° C., 60% RH, 1 month): 98.3%
Purity % ([8]; 25° C., 60% RH, 2 months): 98.3%
Purity % ([8]; 25° C., 60% RH, 3 months): 98.3%
Purity % ([8]; 25° C., 60% RH, 6 months): 98.3%
Purity % ([8]; 25° C., 60% RH, start): 98.3%
Purity % ([8]; 40° C., 75% RH, 1 month): 98.3%
Purity % ([8]; 40° C., 75% RH, 2 months): 98.3%
Purity % ([8]; 40° C., 75% RH, 3 months): 98.3%
Purity % ([8]; 40° C., 75% RH, 6 months): 98.2%
Purity % ([8]; 40° C., 75% RH, start): 98.3%
physical and chemical stability ([8]; stored for 6 months, long-term (25° C., 60% RH) and acceleration (40° C., 75% RH)): excellent physical and chemical stability
